Activity calls are given as the source filed them. The calls are words filed in the database; no cut-off is given here.
Experiments:
[1] = Toxicity in BALB/c nude mouse xenografted with human SK-HEP1 cells assessed as pathological damage in lungs at 10 mg/kg treated for 28 to 30 days under irradiation (3 Gy) by H and E staining based analysis; format: organism-based; conditions: in vivo, time 28-30 day
[2] = Toxicity in BALB/c nude mouse xenografted with human SK-HEP1 cells assessed as histopathological abnormalities in heart at 10 mg/kg treated for 28 to 30 days in presence of sorafenib by H and E staining based analysis; format: organism-based; conditions: in vivo, time 28-30 day
[3] = tested on: SK-HEP1; assay: Induction of apoptosis in human SK-HEP1 cells at 2.5 uM preincubated for 36 hrs followed by irradiation (3 Gy) by Annexin V-FITC/PI staining based flow cytometry; format: functional, cell-based
[4] = tested on: SK-HEP1; assay: Downregulation of FBXO44 expression in human SK-HEP1 cells at 2.5 uM incubated for 36 hrs; format: functional, cell-based
[5] = tested on: SK-HEP1; assay: Inhibition of colony formation in human SK-HEP1 cells at 5 uM incubated for 10 to 14 days with replacement of medium containing compounds on every 3 days in presence of sorafenib by crystal violet staining based analysis; format: functional, cell-based; conditions: time 10-14 day
[6] = target: T1, Protein cereblon/NAD-dependent protein deacylase sirtuin-6 (Homo sapiens, UniProt Q8N6T7+Q96SW2); assay: PROTAC activity at CRBN/SIRT6 in pomalidomide-treated human SK-HEP1 cells assessed as induction of SIRT6 degradation at 2.5 uM treated for 36 hrs by Western blot analysis; format: cell-based
Target sequence in this assay (Q8N6T7 2-355 limits assumed): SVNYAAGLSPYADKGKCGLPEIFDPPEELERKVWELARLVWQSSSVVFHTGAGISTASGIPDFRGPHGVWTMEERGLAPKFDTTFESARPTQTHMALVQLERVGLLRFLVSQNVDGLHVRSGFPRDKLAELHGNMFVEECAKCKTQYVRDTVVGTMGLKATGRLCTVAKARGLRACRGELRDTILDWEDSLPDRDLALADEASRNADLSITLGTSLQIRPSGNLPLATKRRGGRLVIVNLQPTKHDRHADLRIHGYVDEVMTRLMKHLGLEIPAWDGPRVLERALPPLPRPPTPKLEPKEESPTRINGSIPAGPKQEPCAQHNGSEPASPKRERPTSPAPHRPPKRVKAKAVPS
Target sequence in this assay (Q96SW2 whole entry partner): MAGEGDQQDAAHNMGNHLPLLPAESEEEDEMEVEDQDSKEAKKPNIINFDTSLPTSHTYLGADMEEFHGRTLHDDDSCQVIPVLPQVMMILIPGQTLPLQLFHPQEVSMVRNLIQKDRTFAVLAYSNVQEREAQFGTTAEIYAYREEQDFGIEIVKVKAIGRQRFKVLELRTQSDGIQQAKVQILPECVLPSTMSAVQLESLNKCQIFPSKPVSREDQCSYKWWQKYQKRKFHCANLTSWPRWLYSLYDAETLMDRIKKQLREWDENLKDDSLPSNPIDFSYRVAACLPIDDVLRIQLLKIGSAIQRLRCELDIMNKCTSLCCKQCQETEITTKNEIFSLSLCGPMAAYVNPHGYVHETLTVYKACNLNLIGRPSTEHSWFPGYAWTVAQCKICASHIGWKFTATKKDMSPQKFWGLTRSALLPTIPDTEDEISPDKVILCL

[7] = tested on: SK-HEP1; assay: Effect of SIRT6 mRNA expression in human SK-HEP1 cells at 2.5 uM incubated for 36 hrs by RT-qPCR analysis; format: functional, cell-based
[8] = tested on: SK-HEP1; assay: Downregulation of CCPG1 expression in human SK-HEP1 cells at 2.5 uM incubated for 36 hrs in presence of MLN4924; format: functional, cell-based
[9] = tested on: SK-HEP1; assay: Inhibition of colony formation in human SK-HEP1 cells at 2.5 uM incubated for 10 to 14 days with replacement of medium containing compounds on every 3 days combined with irradiation (3 Gy) by crystal violet staining based analysis; format: functional, cell-based; conditions: time 10-14 day
[10] = target: T1, Protein cereblon/NAD-dependent protein deacylase sirtuin-6; assay: PROTAC activity at CRBN/SIRT6 in human Huh-7 cells assessed as induction of SIRT6 degradation upto 10 uM incubated for 36 hrs by Western blot analysis relative to control; format: cell-based
Target sequence in this assay (Q8N6T7 2-355 limits assumed): as the sequence (Q8N6T7 2-355 limits assumed) above
Target sequence in this assay (Q96SW2 whole entry partner): as the sequence (Q96SW2 whole entry partner) above

[11] = tested on: SK-HEP1; assay: Effect of SIRT7 mRNA expression in human SK-HEP1 cells at 2.5 uM incubated for 36 hrs by RT-qPCR analysis; format: functional, cell-based
[12] = tested on: SK-HEP1; assay: Effect of SAP18 mRNA expression in human SK-HEP1 cells at 2.5 uM incubated for 36 hrs by RNA sequencing analysis; format: functional, cell-based
[13] = tested on: Huh-7; assay: Inhibition of colony formation in human Huh-7 cells at 5 to 10 uM incubated for 10 to 14 days with replacement of medium containing compounds on every 3 days by crystal violet staining based analysis; format: functional, cell-based; conditions: dose 5-10 µM, time 10-14 day
[14] = tested on: SK-HEP1; assay: Effect of CSTB mRNA expression in human SK-HEP1 cells at 2.5 uM incubated for 36 hrs by RNA sequencing analysis; format: functional, cell-based
[15] = tested on: SK-HEP1; assay: Effect on SIRT1 expression in human SK-HEP1 cells at 0.002 to 1 uM incubated for 36 hrs by Western blot analysis; format: functional, cell-based; conditions: dose 0.002-1 µM
[16] = target: T1, Protein cereblon/NAD-dependent protein deacylase sirtuin-6; assay: PROTAC activity at CRBN/SIRT6 in human SK-HEP1 cells assessed as induction of SIRT6 degradation incubated for 36 hrs by Western blot analysis; format: cell-based
Target sequence in this assay (Q8N6T7 whole entry): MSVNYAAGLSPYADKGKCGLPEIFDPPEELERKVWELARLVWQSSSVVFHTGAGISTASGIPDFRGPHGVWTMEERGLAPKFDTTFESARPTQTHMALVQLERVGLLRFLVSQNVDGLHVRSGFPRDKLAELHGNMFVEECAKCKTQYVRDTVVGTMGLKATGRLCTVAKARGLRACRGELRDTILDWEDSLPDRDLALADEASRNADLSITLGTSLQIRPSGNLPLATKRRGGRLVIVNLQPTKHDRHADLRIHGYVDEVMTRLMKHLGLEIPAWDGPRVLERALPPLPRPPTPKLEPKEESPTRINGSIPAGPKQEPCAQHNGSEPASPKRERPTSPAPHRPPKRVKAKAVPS
Target sequence in this assay (Q96SW2 whole entry): as the sequence (Q96SW2 whole entry partner) above

[17] = tested on: SK-HEP1; assay: Downregulation of NAIF1 expression in human SK-HEP1 cells at 2.5 uM incubated for 36 hrs; format: functional, cell-based
[18] = tested on: SK-HEP1; assay: Antitumor activity against human SK-HEP1 cells xenografted in BALB/c nude mouse assessed as tumor growth suppression at 10 mg/kg treated for 28 to 30 days; format: functional, organism-based; conditions: time 28-30 day
[19] = tested on: SK-HEP1; assay: Effect of CDK15 mRNA expression in human SK-HEP1 cells at 2.5 uM incubated for 36 hrs by RNA sequencing analysis; format: functional, cell-based
[20] = tested on: SK-HEP1; assay: Cytotoxicity against human SK-HEP1 cells incubated for 72 hrs by CCK8 assay; format: functional, cell-based; conditions: SK-HEP1, 72 h
[21] = target: T1, Protein cereblon/NAD-dependent protein deacylase sirtuin-6; assay: PROTAC activity at CRBN/SIRT6 in human SK-HEP1 cells assessed as reduction in number of SIRT6 foci incubated for about 36 hrs by immunofluorescence based analysis; format: cell-based; conditions: dose <= 5.0 µM
Target sequence in this assay (Q8N6T7 2-355 limits assumed): as the sequence (Q8N6T7 2-355 limits assumed) above
Target sequence in this assay (Q96SW2 whole entry partner): as the sequence (Q96SW2 whole entry partner) above

[22] = target: T1, Protein cereblon/NAD-dependent protein deacylase sirtuin-6; assay: PROTAC activity at CRBN/SIRT6 in MLN4924-treated human SK-HEP1 cells assessed as induction of SIRT6 degradation at 2.5 uM treated for 36 hrs by Western blot analysis; format: cell-based
Target sequence in this assay (Q8N6T7 2-355 limits assumed): as the sequence (Q8N6T7 2-355 limits assumed) above
Target sequence in this assay (Q96SW2 whole entry partner): as the sequence (Q96SW2 whole entry partner) above

[23] = tested on: SK-HEP1; assay: Downregulation of ANKRD44 expression in human SK-HEP1 cells at 2.5 uM incubated for 36 hrs; format: functional, cell-based
[24] = target: T1, Protein cereblon/NAD-dependent protein deacylase sirtuin-6; assay: PROTAC activity at CRBN/SIRT6 in human SK-HEP1 cells assessed as disruption of CHD4 recruitment to DSB sites at 2.5 uM incubated for 36 hrs followed by CPT treatment for 4 hrs by Western blot analysis; format: cell-based; conditions: time 40.0 hrs
Target sequence in this assay (Q8N6T7 2-355 limits assumed): as the sequence (Q8N6T7 2-355 limits assumed) above
Target sequence in this assay (Q96SW2 whole entry partner): as the sequence (Q96SW2 whole entry partner) above

[25] = Toxicity in BALB/c nude mouse xenografted with human SK-HEP1 cells assessed as histopathological abnormalities in heart at 10 mg/kg treated for 28 to 30 days by H and E staining based analysis; format: organism-based; conditions: in vivo, time 28-30 day
[26] = target: T1, Protein cereblon/NAD-dependent protein deacylase sirtuin-6; assay: PROTAC activity at CRBN/SIRT6 in human Huh-7 cells assessed as induction of SIRT6 degradation incubated for 36 hrs by Western blot analysis; format: cell-based
[27] = Toxicity in BALB/c nude mouse xenografted with human SK-HEP1 cells assessed as pathological damage in liver at 10 mg/kg treated for 28 to 30 days by H and E staining based analysis; format: organism-based; conditions: in vivo, time 28-30 day
[28] = target: T1, Protein cereblon/NAD-dependent protein deacylase sirtuin-6; assay: PROTAC activity at CRBN/SIRT6 in human SK-HEP1 cells assessed as increase in H3K9Ac level incubated for 36 hrs by Western blot analysis; format: cell-based; conditions: dose 0.002-1 µM
Target sequence in this assay (Q8N6T7 2-355 limits assumed): as the sequence (Q8N6T7 2-355 limits assumed) above
Target sequence in this assay (Q96SW2 whole entry partner): as the sequence (Q96SW2 whole entry partner) above

[29] = Toxicity in BALB/c nude mouse xenografted with human SK-HEP1 cells assessed as pathological damage in spleen at 10 mg/kg treated for 28 to 30 days under irradiation (3 Gy) by H and E staining based analysis; format: organism-based; conditions: in vivo, time 28-30 day
[30] = tested on: SK-HEP1; assay: Downregulation of NAIF1 expression in human SK-HEP1 cells at 2.5 uM incubated for 36 hrs in presence of MLN4924; format: functional, cell-based
[31] = target: T1, Protein cereblon/NAD-dependent protein deacylase sirtuin-6; assay: PROTAC activity at CRBN/SIRT6 in human U2OS cells with DNA repair assessed as inhibition of CHD4 loading onto chromatin incubated for 36 hrs by FACS analysis; format: cell-based
[32] = tested on: SK-HEP1; assay: Effect of GBX2 mRNA expression in human SK-HEP1 cells at 2.5 uM incubated for 36 hrs by RNA sequencing analysis; format: functional, cell-based
[33] = tested on: SK-HEP1; assay: Effect of ABI3BP mRNA expression in human SK-HEP1 cells at 2.5 uM incubated for 36 hrs by RNA sequencing analysis; format: functional, cell-based
[34] = target: T1, Protein cereblon/NAD-dependent protein deacylase sirtuin-6; assay: PROTAC activity at CRBN/SIRT6 in human SK-HEP1 cells assessed as induction of SIRT6 degradation upto 10 uM incubated for 36 hrs by Western blot analysis relative to control; format: cell-based
[35] = target: T1, Protein cereblon/NAD-dependent protein deacylase sirtuin-6; assay: PROTAC activity at CRBN/SIRT6 in MG132-treated human SK-HEP1 cells assessed as induction of SIRT6 degradation at 2.5 uM treated for 36 hrs by Western blot analysis; format: cell-based

Nc1cc(N2CCN(CC3CCN(c4cc5c(cc4F)C(=O)N(C4CCC(=O)NC4=O)C5=O)CC3)CC2)ccc1[N+](=O)[O-] (stereo unspecified)
Activity [1]: Non-toxic
Activity [2]: Non-toxic
Activity [3]: Active; Significant Effect Was Observed Before Being Exposed To Ir
Activity [4]: Active
inhibition [5]: Not active; Exhibited Weaker Inhibition
Activity [6]: inactive
Activity [7]: Active; Only Slight Downregulation Observed
Activity [8]: inactive
inhibition [9]: Active; Exhibited Superior To Compound Alone
Emax [10]: 91.8%
Activity [11]: No effect
Activity [12]: Active
inhibition [13]: Active
Activity [14]: Active
Activity [15]: No effect
DC50 [16]: 45.3 nM
Activity [17]: Active
Activity [18]: Active
Activity [19]: Active
IC50 [20]: 1510 nM
Activity [21]: Dose-dependent-effect
Activity [22]: inactive
Activity [23]: Active
Activity [24]: Active
Activity [25]: Non-toxic
DC50 [26]: 154 nM
Activity ([26]; dose 0.008-5 µM): Dose-dependent-effect; But Reduced Degradation Efficiency Observed
Activity [27]: Non-toxic
Activity [28]: Dose-dependent-effect
Activity [29]: Non-toxic
Activity [30]: inactive
inhibition [31]: Active; Results In Decrease In Hr And Nhej Efficiencies
Activity [32]: Active
Activity [33]: Active
Emax [34]: > 98%
Activity [35]: Not active; Confirms That Proteosome Is Necessary For Sirt6 Degradation

From ChEMBL document CHEMBL6120963, “Discovery of Novel PROTAC SIRT6 Degraders with Potent Efficacy against Hepatocellular Carcinoma” (J Med Chem, 2024)
